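Each compound was tested at five concentrations against cells in 96-well plates for 48 hours. GI50 marks 50% less growth.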 Activity calls are given as the source filed them. No stated cut-off is given here; in the data, active = GI50 up to about 1.1 µM and inactive = higher.
Columns and labels:
Experiment in all cases: inhibition of tumour cell growth, NCI panel, 48 h
NCI-H226 = system: NCI-H226
U-251 = system: U-251
UACC-62 = system: UACC-62
NCI-H23 = system: NCI-H23
SF-295 = system: SF-295
SW-620 = system: SW-620
SR = system: SR
UACC-257 = system: UACC-257
SNB-19 = system: SNB-19
MDA-N = system: MDA-N
A549 = system: A549
Hs-578T = system: Hs-578T
CCRF-CEM = system: CCRF-CEM
KM12 = system: KM12
T47D = system: T47D
SF-539 = system: SF-539
SK-MEL-28 = system: SK-MEL-28
MOLT-4 = system: MOLT-4
M14 = system: M14
HOP-62 = system: HOP-62
786-0 = system: 786-0
OVCAR-8 = system: OVCAR-8
RXF 393 = system: RXF 393
MDA-MB-231 = system: MDA-MB-231
HL-60 = system: HL-60
HT-29 = system: HT-29
RPMI-8226 = system: RPMI-8226
SF-268 = system: SF-268
HCT-116 = system: HCT-116
TK-10 = system: TK-10
MDA-MB-435 = system: MDA-MB-435
EKVX = system: EKVX
OVCAR-4 = system: OVCAR-4
CAKI-1 = system: CAKI-1
SK-OV-3 = system: SK-OV-3
MCF7 = system: MCF7
PC-3 = system: PC-3
NCI-H522 = system: NCI-H522
OVCAR-5 = system: OVCAR-5
A498 = system: A498
SK-MEL-5 = system: SK-MEL-5
ACHN = system: ACHN
NCI/ADR-RES = system: NCI/ADR-RES
HOP-92 = system: HOP-92
HCT-15 = system: HCT-15
IGROV-1 = system: IGROV-1
SK-MEL-2 = system: SK-MEL-2
SNB-75 = system: SNB-75
NCI-H460 = system: NCI-H460
SN12C = system: SN12C
UO-31 = system: UO-31
LOX IMVI = system: LOX IMVI
DU-145 = system: DU-145
Malme-3M = system: Malme-3M
COLO 205 = system: COLO 205
BT-549 = system: BT-549
K562 = system: K562
OVCAR-3 = system: OVCAR-3

NS(=O)(=O)c1cc(Br)c(/N=N\c2ccc(O)c3ncccc23)c(Br)c1
GI50 (NCI-H226): 45 µM (inactive)
GI50 (U-251): 19.1 µM (inactive)
GI50 (UACC-62): 21.8 µM (inactive)
GI50 (NCI-H23): 17.9 µM (inactive)
GI50 (SF-295): 42.6 µM (inactive)
GI50 (SW-620): 34.8 µM (inactive)
GI50 (SR): 9.46 µM (inactive)
GI50 (UACC-257): 19.6 µM (inactive)
GI50 (SNB-19): 19.5 µM (inactive)
GI50 (MDA-N): 14.6 µM (inactive)
GI50 (A549): 18.5 µM (inactive)
GI50 (Hs-578T): 21.8 µM (inactive)
GI50 (CCRF-CEM): 3.78 µM (inactive)
GI50 (KM12): 37.8 µM (inactive)
GI50 (T47D): 39 µM (inactive)
GI50 (SF-539): 25.9 µM (inactive)
GI50 (SK-MEL-28): 27.4 µM (inactive)
GI50 (MOLT-4): 3.99 µM (inactive)
GI50 (M14): 13.1 µM (inactive)
GI50 (HOP-62): 25.5 µM (inactive)
GI50 (786-0): 23.6 µM (inactive)
GI50 (OVCAR-8): 35.2 µM (inactive)
GI50 (RXF 393): 46.5 µM (inactive)
GI50 (MDA-MB-231): 51.1 µM (inactive)
GI50 (HL-60): 6.04 µM (inactive)
GI50 (HT-29): > 100 µM (inactive)
GI50 (RPMI-8226): 7.26 µM (inactive)
GI50 (SF-268): 15.9 µM (inactive)
GI50 (HCT-116): 26.7 µM (inactive)
GI50 (TK-10): 22.3 µM (inactive)
GI50 (MDA-MB-435): 29.2 µM (inactive)
GI50 (EKVX): 32.3 µM (inactive)
GI50 (OVCAR-4): 43.6 µM (inactive)
GI50 (CAKI-1): 37.9 µM (inactive)
GI50 (SK-OV-3): 47.8 µM (inactive)
GI50 (MCF7): 11.5 µM (inactive)
GI50 (PC-3): 29.8 µM (inactive)
GI50 (NCI-H522): 16.5 µM (inactive)
GI50 (OVCAR-5): 71.6 µM (inactive)
GI50 (A498): 18.6 µM (inactive)
GI50 (SK-MEL-5): 30.7 µM (inactive)
GI50 (ACHN): 4.34 µM (inactive)
GI50 (NCI/ADR-RES): 13.2 µM (inactive)
GI50 (HOP-92): 41.8 µM (inactive)
GI50 (HCT-15): 4.27 µM
GI50 (IGROV-1): 11 µM (inactive)
GI50 (SK-MEL-2): 28 µM (inactive)
GI50 (SNB-75): 21.7 µM (inactive)
GI50 (NCI-H460): 25.3 µM (inactive)
GI50 (SN12C): 22.3 µM (inactive)
GI50 (UO-31): 21.3 µM (inactive)
GI50 (LOX IMVI): 20.9 µM (inactive)
GI50 (DU-145): 47 µM (inactive)
GI50 (Malme-3M): 13.5 µM (inactive)
GI50 (COLO 205): > 100 µM (inactive)
GI50 (BT-549): 16.4 µM (inactive)
GI50 (K562): 20 µM (inactive)
GI50 (OVCAR-3): 54.6 µM (inactive)

CCOC(=O)C1=C(O)C2C3CC4C2C(O)=C(C(=O)OCC)C2C1C3C42 (stereo unspecified)
GI50 (NCI-H226): > 100 µM (inactive)
GI50 (U-251): > 100 µM (inactive)
GI50 (UACC-62): > 100 µM (inactive)
GI50 (NCI-H23): > 100 µM (inactive)
GI50 (SF-295): > 100 µM (inactive)
GI50 (SW-620): > 100 µM (inactive)
GI50 (SR): 45.3 µM (inactive)
GI50 (UACC-257): > 100 µM (inactive)
GI50 (SNB-19): > 100 µM (inactive)
GI50 (MDA-N): > 100 µM (inactive)
GI50 (A549): > 100 µM (inactive)
GI50 (Hs-578T): > 100 µM (inactive)
GI50 (CCRF-CEM): 42.7 µM (inactive)
GI50 (KM12): > 100 µM (inactive)
GI50 (T47D): > 100 µM (inactive)
GI50 (SF-539): > 100 µM (inactive)
GI50 (SK-MEL-28): > 100 µM (inactive)
GI50 (MOLT-4): > 100 µM (inactive)
GI50 (M14): > 100 µM (inactive)
GI50 (HOP-62): > 100 µM (inactive)
GI50 (786-0): > 100 µM (inactive)
GI50 (OVCAR-8): > 100 µM (inactive)
GI50 (RXF 393): > 100 µM (inactive)
GI50 (MDA-MB-231): > 100 µM (inactive)
GI50 (HL-60): 24.8 µM (inactive)
GI50 (HT-29): > 100 µM (inactive)
GI50 (RPMI-8226): 84.5 µM (inactive)
GI50 (SF-268): > 100 µM (inactive)
GI50 (HCT-116): > 100 µM (inactive)
GI50 (TK-10): > 100 µM (inactive)
GI50 (MDA-MB-435): > 100 µM (inactive)
GI50 (EKVX): > 100 µM (inactive)
GI50 (OVCAR-4): > 100 µM (inactive)
GI50 (CAKI-1): > 100 µM (inactive)
GI50 (SK-OV-3): > 100 µM (inactive)
GI50 (MCF7): > 100 µM (inactive)
GI50 (PC-3): > 100 µM (inactive)
GI50 (NCI-H522): > 100 µM (inactive)
GI50 (OVCAR-5): > 100 µM (inactive)
GI50 (A498): > 100 µM (inactive)
GI50 (SK-MEL-5): > 100 µM (inactive)
GI50 (ACHN): > 100 µM (inactive)
GI50 (NCI/ADR-RES): 18.7 µM (inactive)
GI50 (HOP-92): 95.5 µM (inactive)
GI50 (HCT-15): > 100 µM
GI50 (IGROV-1): > 100 µM (inactive)
GI50 (SK-MEL-2): > 100 µM (inactive)
GI50 (SNB-75): > 100 µM (inactive)
GI50 (NCI-H460): > 100 µM (inactive)
GI50 (SN12C): > 100 µM (inactive)
GI50 (UO-31): > 100 µM (inactive)
GI50 (LOX IMVI): 98.6 µM (inactive)
GI50 (DU-145): > 100 µM (inactive)
GI50 (Malme-3M): > 100 µM (inactive)
GI50 (COLO 205): > 100 µM (inactive)
GI50 (BT-549): > 100 µM (inactive)
GI50 (K562): > 100 µM (inactive)
GI50 (OVCAR-3): > 100 µM (inactive)

Source: ChEMBL document CHEMBL1201862, “PubChem BioAssay data set” (2004)
